Laboratory results reported in publication PMC6791878, “Evaluation of integrin αvβ6 cystine knot PET tracers to detect cancer and idiopathic pulmonary fibrosis” (Nature Communications, 2019).
Where “and” joins values, the source holds several entries; their conditions need not be identical. Equal entries are not always repeated. Where two headings read alike, the source gives them in different places.

Tests used:
human integrin αvβ6 [1] = target: T1, human integrin αvβ6 (Homo sapiens, UniProt P06756+P18564, DEL708-788); assay: Competition binding (IC50) against yeast surface-displayed R01-MG; conditions: for binding affinity for integrin avb6 in competition binding (IC50), in words: compete with R01-MG displayed on yeast
T1 construct: purchased R&D Systems

human integrin αvβ6 [2] = target: T1, human integrin αvβ6; assay: Equilibrium binding of yeast-displayed knottins to soluble integrin αvβ6 (two-colour flow cytometry, KD); conditions: KD, equilibrium binding, knottin expressed on yeast surface vs soluble human integrin αvβ6; ± S.D., three replicates on separate days
Sprague Dawley rats = assay type: in vivo, rat
Description: Groups of 5 animals sex^−1 were sacrificed on Study Days 3 (48 h) and 15 for evaluation of clinical pathology and organ toxicity. […] Parameters evaluated for test article effect included survival, clinical observations, body weight, body weight gain, clinical pathology, gross pathology, organ weights, and microscopic pathology.
The purpose of this study was to evaluate the toxicity of [19F]FP-R 1-MG-F2 following a single […]
intra ven ous dose in rats. This study consisted of one test article treatment group of ten male and ten fem ale Spr ague-Dawley rats dosed with [19F]FP-R 1-MG-F2 (note - sm all m olecule […]
[…] An additio na l grou p of ten m ales and ten females received the vehicle, 10% Ethanol in Sterile Saline, and ser ved as the control. All rats received a dose volum e of 5 m L/k g. T he rats were dosed intravenous ly onc e on Stud y Da y 1.
Five m ale and five fem ale rats from each group were bled on Stud y Da y 3 and the rem aining rats were bled on Stud y D ay 15. All an im als were e u than ized a nd necrops ied f ollo wing b loo d collect ion . Param eters evalu ated f or test art icle ef f ect inclu ded sur viva l, clin ica l obser vat ions, bod y weight, bod y weight gain, clinical patholog y, gross pathology, organ weights, and […]
the study. No abnorm al findings were indicated dur ing mortality checks (cagesides) or hands-on […]
be related to treatm ent related.
Under the conditions of this study, there were no treatm ent related findings in Sprague Dawley rats three or fifteen da ys after a single intravenous dose of [19F]FP-R01-MG-F2 at 1.10 mg/kg. […]
intravenous dose in rats. […]
The test article (TA), [19F]FP-R 1-MG-F2, was received from the Sponsor on Aug ust 25, […]
2014, described as a wh ite po wd er . The test article was stored frozen in a g lass vial.
Copies of the Test Artic le Data Sheets are included in Appendix D.
Note: Test article nam e as per the Qualit y Control Record (Appendix D) is listed as FP-GLY-36-Gly-NH2, which represents the chem ical structure. T he test article is referred to b y the comm ercial nam e provided b y the client ([19F]FP-R 1-MG-F2) throughout this report and […]
Name Lot No. Supplier Purit y
The vehicle used in this study was 10% Ethanol in Sterile Saline (0.9% sodium chloride, USP). The vehic le com ponents were purchased commercially b y SoBran and stored at room tem perature in accordance with the m anufacturer instructions. Copies of the Certificate of Anal yses for the lots of 10% Ethanol and Sterile Saline used are included in […]
Name Lot No. Supplier Concentration
Etha no l (20 0 pro of ), USP SHBB0 212 V Sigm a Aldrich; Sa int 99.87% […]
0.9% Sod ium Chlor ide, USP C886374 Baxter; C le ve lan d, 0.888% […]
The 0.22 mg/mL test article solution was pr epar ed b y adding 40 mL of 10% ethanol solution (vehicle control) to 8.8 mg of the test article, mixed gently, and then filtered using a 2µ sterile syringe filter. The pH of the 10% ethanol solution wa s adj us ted us ing HCl and NaO H to achieve a pH of 7.4. The vehicle was passed through a 2µ sterile syringe filter af t er pH […]
On October 2, 2014, 21 male and 21 female Sprague-Dawle y rats were obtained from Harlan, Frederick , MD. The supplier verified that the anim als were free of specific active inf ectious dise ases prior to arriva l at the SoBra n f acilit y. At init iat ion of dosing , the m ale and fem ale rats were 7 week s of age, (Date of Birth: 8/15/14). At ra ndom iza tion th e bod y weights of the rats used on stud y ranged from 199.05 to 218.61 gram s (m ales) […]
Rats were chosen for use in this stud y since the y are considered an acceptable anim al model for the rodent species for acute toxicity tests prior to clinical use.
The animals were housed following the specifications recommended in The Guide for the […]

[3] = Day 3, Group 2 males, p < 0.05, within historical range

T1 sequence (P06756 31-992 limits assumed, stated change not applied): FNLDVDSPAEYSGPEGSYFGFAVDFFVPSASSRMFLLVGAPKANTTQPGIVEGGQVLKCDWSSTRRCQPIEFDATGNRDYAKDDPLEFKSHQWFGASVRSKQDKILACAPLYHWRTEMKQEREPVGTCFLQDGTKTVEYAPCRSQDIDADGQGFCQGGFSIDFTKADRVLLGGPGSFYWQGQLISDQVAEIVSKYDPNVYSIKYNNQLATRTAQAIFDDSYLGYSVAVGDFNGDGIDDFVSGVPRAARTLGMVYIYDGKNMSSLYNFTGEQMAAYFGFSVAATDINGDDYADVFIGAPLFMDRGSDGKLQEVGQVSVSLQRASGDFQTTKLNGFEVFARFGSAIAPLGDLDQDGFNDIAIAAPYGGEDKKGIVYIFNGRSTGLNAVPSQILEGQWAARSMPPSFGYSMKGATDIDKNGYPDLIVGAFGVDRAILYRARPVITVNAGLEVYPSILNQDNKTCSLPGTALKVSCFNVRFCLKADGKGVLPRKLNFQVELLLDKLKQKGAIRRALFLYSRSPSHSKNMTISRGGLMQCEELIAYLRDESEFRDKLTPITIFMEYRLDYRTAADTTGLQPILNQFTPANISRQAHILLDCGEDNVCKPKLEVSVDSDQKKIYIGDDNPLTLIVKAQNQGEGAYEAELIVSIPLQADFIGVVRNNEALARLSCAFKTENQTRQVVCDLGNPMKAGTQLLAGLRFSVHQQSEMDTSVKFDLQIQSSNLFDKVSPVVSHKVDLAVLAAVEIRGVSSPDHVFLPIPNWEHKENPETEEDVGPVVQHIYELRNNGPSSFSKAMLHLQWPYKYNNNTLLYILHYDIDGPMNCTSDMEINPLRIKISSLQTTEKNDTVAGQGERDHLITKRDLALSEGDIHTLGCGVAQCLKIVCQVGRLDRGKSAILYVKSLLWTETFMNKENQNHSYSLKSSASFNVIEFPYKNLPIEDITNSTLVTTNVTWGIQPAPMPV
T1 sequence (P18564 22-707 limits assumed, stated change not applied): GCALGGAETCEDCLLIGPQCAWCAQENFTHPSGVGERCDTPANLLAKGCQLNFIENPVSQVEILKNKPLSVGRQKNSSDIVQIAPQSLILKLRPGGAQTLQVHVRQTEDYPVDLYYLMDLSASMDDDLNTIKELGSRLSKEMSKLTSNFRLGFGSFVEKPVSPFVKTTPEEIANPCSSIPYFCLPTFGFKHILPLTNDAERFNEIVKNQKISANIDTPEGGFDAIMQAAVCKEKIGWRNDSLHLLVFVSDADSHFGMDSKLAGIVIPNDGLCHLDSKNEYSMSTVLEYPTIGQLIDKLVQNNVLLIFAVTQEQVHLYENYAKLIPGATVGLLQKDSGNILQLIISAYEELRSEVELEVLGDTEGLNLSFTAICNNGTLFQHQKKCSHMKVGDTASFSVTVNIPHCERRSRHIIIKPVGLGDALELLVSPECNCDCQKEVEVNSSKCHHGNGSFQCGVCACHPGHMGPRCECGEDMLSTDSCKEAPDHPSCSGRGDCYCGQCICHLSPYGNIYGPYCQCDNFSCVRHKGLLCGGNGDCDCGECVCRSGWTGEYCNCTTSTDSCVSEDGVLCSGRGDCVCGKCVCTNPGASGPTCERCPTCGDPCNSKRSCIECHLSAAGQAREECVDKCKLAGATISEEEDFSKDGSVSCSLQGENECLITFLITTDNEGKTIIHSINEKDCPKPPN

Question: What does the source list for CC[C@H](C)[C@@H]1NC(=O)[C@@H](NC(=O)CN)CSSC[C@@H]2NC(=O)[C@H](C)NC(=O)CNC(=O)[C@@H]3CCCN3C(=O)[C@@H]3CSSC[C@@H](C(=O)NCC(N)=O)NC(=O)[C@H](Cc4ccc(O)cc4)NC(=O)CNC(=O)[C@H](CC(N)=O)NC(=O)CNC(=O)[C@H](CCCNC(=N)N)NC(=O)[C@H](CSSC[C@H](NC(=O)[C@H](CCCNC(=N)N)NC(=O)[C@H](Cc4ccccc4)NC(=O)[C@H](CC(C)C)NC(=O)[C@H](CC(C)C)NC(=O)[C@H]([C@@H](C)O)NC(=O)CNC(=O)[C@H](CC(C)C)NC(=O)[C@H](CC(=O)O)NC(=O)[C@H]([C@@H](C)O)NC(=O)[C@H](CCCNC(=N)N)NC(=O)CNC(=O)[C@H](CC(N)=O)NC(=O)[C@H](CC(C)C)NC1=O)C(=O)N[C@@H](CCCNC(=N)N)C(=O)N[C@@H](CCCNC(=N)N)C(=O)N[C@@H](CC(=O)O)C(=O)N[C@@H](CO)C(=O)N[C@@H](CC(=O)O)C(=O)N3)NC(=O)[C@H]([C@@H](C)CC)NC2=O [R01-MG]?
Answer: binding affinity for integrin avb6 in competition binding (IC50), in words (human integrin αvβ6 [1]): subnanomolar; Kd (human integrin αvβ6 [2]): ~1 nM and 1.24 nM

Question: What does the source list for CC[C@H](C)[C@@H]1NC(=O)[C@@H](NC(=O)CNC(=O)[C@@H](C)F)CSSC[C@@H]2NC(=O)[C@H](C)NC(=O)CNC(=O)[C@@H]3CCCN3C(=O)[C@@H]3CSSC[C@@H](C(=O)NCC(N)=O)NC(=O)[C@H](Cc4ccc(O)cc4)NC(=O)CNC(=O)[C@H](CC(N)=O)NC(=O)CNC(=O)[C@H](CCCNC(=N)N)NC(=O)[C@H](CSSC[C@H](NC(=O)[C@H](CCCNC(=N)N)NC(=O)[C@H](Cc4ccccc4)NC(=O)[C@H](CC(C)C)NC(=O)[C@H](CC(C)C)NC(=O)[C@H]([C@@H](C)O)NC(=O)CNC(=O)[C@H](CC(C)C)NC(=O)[C@H](CC(=O)O)NC(=O)[C@H]([C@@H](C)O)NC(=O)[C@H](CCCNC(=N)N)NC(=O)CNC(=O)[C@H](CC(N)=O)NC(=O)[C@H](CC(C)C)NC1=O)C(=O)N[C@@H](CCCNC(=N)N)C(=O)N[C@@H](CCCNC(=N)N)C(=O)N[C@@H](CC(=O)O)C(=O)N[C@@H](CO)C(=O)N[C@@H](CC(=O)O)C(=O)N3)NC(=O)[C@H]([C@@H](C)CC)NC2=O [[^19F]FP-R01-MG-F2]?
Answer: IC50 (human integrin αvβ6 [1]): 0.56 ± 0.46 nM; binding affinity for integrin avb6 in competition binding (IC50), in words (human integrin αvβ6 [1]): subnanomolar; Organ weight, Brain, mean (Sprague Dawley rats; Day 3, Group 2 females): 1.5766; Organ weight, Eyes with optic nerve, mean (Sprague Dawley rats; Day 3, Group 2 females): 0.2641; Organ weight, Heart, mean (Sprague Dawley rats; Day 3, Group 2 females): 0.6540; Organ weight, Kidneys, mean (Sprague Dawley rats; Day 3, Group 2 females): 1.2874; Organ weight, Liver, mean (Sprague Dawley rats; Day 3, Group 2 females): 5.9521; Organ weight, Lungs, mean (Sprague Dawley rats; Day 3, Group 2 females): 1.5304; Organ weight, Ovaries, mean (Sprague Dawley rats; Day 3, Group 2 females): 0.1595; Organ weight, Spleen, mean (Sprague Dawley rats; Day 3, Group 2 females): 0.4955; Organ weight, Thyroid (both lobes with parathyroid), mean (Sprague Dawley rats; Day 3, Group 2 females): 0.0479; Organ weight, Brain, mean (Sprague Dawley rats; Day 3, Group 2 males): 1.7081; Organ weight, Eyes with optic nerve, mean (Sprague Dawley rats; Day 3, Group 2 males): 0.3216; Organ weight, Heart, mean (Sprague Dawley rats; Day 3, Group 2 males): 0.9438; Organ weight, Kidneys, mean (Sprague Dawley rats; Day 3, Group 2 males): 1.7156; Organ weight, Liver, mean (Sprague Dawley rats; Day 3, Group 2 males): 8.4988; Organ weight, Lungs, mean (Sprague Dawley rats; Day 3, Group 2 males): 1.6368; Organ weight, Spleen, mean (Sprague Dawley rats; Day 3, Group 2 males): 0.6601; Organ weight, Testes, mean (Sprague Dawley rats; Day 3, Group 2 males): 2.9952; Organ weight, Thyroid (both lobes with parathyroid), mean (Sprague Dawley rats; Day 3, Group 2 males): 0.0299; alkaline phosphatase (ALP) vs control (Sprague Dawley rats; Day 3, Group 2 males, p < 0.05, not believed biologically meaningful): increase; absolute large unstained cell counts (ALUC) vs control (Sprague Dawley rats; [3]): increased; absolute lymphocyte counts (ALY) vs control (Sprague Dawley rats; [3]): increased; absolute monocyte counts (AMO) vs control (Sprague Dawley rats; [3]): increased; white blood cell counts (WBC) vs control (Sprague Dawley rats; [3]): increased; Organ weight, Brain, mean (Sprague Dawley rats; Day 15, Group 2 females): 1.5915; Organ weight, Eyes with optic nerve, mean (Sprague Dawley rats; Day 15, Group 2 females): 0.2965; Organ weight, Heart, mean (Sprague Dawley rats; Day 15, Group 2 females): 0.7068; Organ weight, Kidneys, mean (Sprague Dawley rats; Day 15, Group 2 females): 1.3894; Organ weight, Liver, mean (Sprague Dawley rats; Day 15, Group 2 females): 7.3444; Organ weight, Lungs, mean (Sprague Dawley rats; Day 15, Group 2 females): 1.5063; Organ weight, Ovaries, mean (Sprague Dawley rats; Day 15, Group 2 females): 0.1569; Organ weight, Spleen, mean (Sprague Dawley rats; Day 15, Group 2 females): 0.5718; Organ weight, Thyroid (both lobes with parathyroid), mean (Sprague Dawley rats; Day 15, Group 2 females): 0.0355; activated partial thromboplastin time vs control (Sprague Dawley rats; Day 15, Group 2 females, p < 0.05, within historical range): decrease; Organ weight, Brain, mean (Sprague Dawley rats; Day 15, Group 2 males): 1.5942; Organ weight, Eyes with optic nerve, mean (Sprague Dawley rats; Day 15, Group 2 males): 0.3204; Organ weight, Heart, mean (Sprague Dawley rats; Day 15, Group 2 males): 1.0593; Organ weight, Kidneys, mean (Sprague Dawley rats; Day 15, Group 2 males): 2.1137; Organ weight, Liver, mean (Sprague Dawley rats; Day 15, Group 2 males): 11.2236; Organ weight, Lungs, mean (Sprague Dawley rats; Day 15, Group 2 males): 2.0208; Organ weight, Spleen, mean (Sprague Dawley rats; Day 15, Group 2 males): 0.6991; Organ weight, Testes, mean (Sprague Dawley rats; Day 15, Group 2 males): 3.5798; Organ weight, Thyroid (both lobes with parathyroid), mean (Sprague Dawley rats; Day 15, Group 2 males): 0.0238; mean corpuscular hemoglobin (MCH) vs control (Sprague Dawley rats; Day 15, Group 2 males, p < 0.05, within historical range): increase; alanine aminotransferase (ALT) vs control (Sprague Dawley rats; Days 3 and 15, Group 2 males, p < 0.05, not believed biologically meaningful): elevated; organ weights and microscopic pathology findings (Sprague Dawley rats; […] single i.v.): No treatm ent-related findings; bodyweights of treated females on Day 3 vs control (Sprague Dawley rats; p < 0.05, judged not treatment related): significant increase
